The test system of one data set is Rattus norvegicus. Put plainly: Inhibition of LH-RH agonist leuprorelin-induced testosterone steroidogenesis in Sprague-Dawley rat at 20 mg/kg, po administered 1 hr prior leuprorelin-induction measured up to 240 mins by GC/MS analysis. It is filed as functional, organism-based. The arrangement: dose 20 mg/kg.
Data set [1] concerns the target T1, Estrogen receptor (Homo sapiens) (UniProt P03372).
T1 sequence (whole entry): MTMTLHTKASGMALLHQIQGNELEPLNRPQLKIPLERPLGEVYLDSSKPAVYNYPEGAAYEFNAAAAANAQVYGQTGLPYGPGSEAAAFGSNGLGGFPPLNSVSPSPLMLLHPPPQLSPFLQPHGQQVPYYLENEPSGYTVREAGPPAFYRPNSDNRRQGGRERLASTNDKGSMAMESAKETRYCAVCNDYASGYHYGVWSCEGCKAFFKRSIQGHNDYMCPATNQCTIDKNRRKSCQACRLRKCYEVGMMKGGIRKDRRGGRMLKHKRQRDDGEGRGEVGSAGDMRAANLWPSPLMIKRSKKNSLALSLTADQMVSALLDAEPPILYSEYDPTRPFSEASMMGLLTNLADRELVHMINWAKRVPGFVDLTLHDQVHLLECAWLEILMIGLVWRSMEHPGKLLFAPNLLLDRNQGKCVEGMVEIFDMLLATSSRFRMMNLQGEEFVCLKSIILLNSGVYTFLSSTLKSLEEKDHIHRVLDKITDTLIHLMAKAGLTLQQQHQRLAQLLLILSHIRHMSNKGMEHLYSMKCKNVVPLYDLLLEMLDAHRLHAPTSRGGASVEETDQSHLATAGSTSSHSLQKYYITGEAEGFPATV
Put plainly: Agonist activity at human Estrogen receptor ERalpha expressed in human HeLa cells assessed as DHT-induced response after 40 hrs by luciferase/beta-galactosidase-based reporter gene assay. The class given is functional, cell-based.

The target in data set [2] is T2, Androgen receptor (Homo sapiens) (UniProt P10275).
T2 sequence (whole entry): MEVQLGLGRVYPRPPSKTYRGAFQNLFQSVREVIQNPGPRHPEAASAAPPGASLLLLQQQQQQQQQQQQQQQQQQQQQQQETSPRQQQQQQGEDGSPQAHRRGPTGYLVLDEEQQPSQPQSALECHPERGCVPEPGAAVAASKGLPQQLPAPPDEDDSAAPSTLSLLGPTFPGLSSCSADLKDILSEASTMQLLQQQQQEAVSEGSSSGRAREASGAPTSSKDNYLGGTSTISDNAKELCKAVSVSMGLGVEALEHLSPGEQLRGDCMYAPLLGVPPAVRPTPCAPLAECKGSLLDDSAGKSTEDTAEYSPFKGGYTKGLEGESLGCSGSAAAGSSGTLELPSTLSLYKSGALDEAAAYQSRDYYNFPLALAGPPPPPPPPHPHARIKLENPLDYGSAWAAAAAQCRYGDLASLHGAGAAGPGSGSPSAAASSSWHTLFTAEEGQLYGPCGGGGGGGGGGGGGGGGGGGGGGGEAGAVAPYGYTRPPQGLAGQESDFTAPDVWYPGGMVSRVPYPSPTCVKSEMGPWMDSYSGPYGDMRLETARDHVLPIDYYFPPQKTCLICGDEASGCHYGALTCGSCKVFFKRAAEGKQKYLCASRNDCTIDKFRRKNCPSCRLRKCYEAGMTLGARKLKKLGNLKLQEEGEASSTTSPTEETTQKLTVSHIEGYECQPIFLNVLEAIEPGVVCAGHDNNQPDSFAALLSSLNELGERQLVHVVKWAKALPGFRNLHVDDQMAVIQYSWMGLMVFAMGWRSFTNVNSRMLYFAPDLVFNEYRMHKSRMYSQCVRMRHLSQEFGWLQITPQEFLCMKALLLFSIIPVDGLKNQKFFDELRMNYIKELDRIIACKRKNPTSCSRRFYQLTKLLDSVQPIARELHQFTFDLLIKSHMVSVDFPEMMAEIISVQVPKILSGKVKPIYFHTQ
Put plainly: Antagonist activity at human androgen receptor expressed in human HeLa cells assessed as inhibition of DHT-induced response after 40 hrs by luciferase/beta-galactosidase-based reporter gene assay. It is filed as functional, cell-based.

Data set [3] can be described thus: Solubility of the compound. It is filed as physicochemical.
Data set [4] has as its target T3, 17-beta-hydroxysteroid dehydrogenase type 2 (Homo sapiens) (UniProt P37059).
T3 sequence (whole entry): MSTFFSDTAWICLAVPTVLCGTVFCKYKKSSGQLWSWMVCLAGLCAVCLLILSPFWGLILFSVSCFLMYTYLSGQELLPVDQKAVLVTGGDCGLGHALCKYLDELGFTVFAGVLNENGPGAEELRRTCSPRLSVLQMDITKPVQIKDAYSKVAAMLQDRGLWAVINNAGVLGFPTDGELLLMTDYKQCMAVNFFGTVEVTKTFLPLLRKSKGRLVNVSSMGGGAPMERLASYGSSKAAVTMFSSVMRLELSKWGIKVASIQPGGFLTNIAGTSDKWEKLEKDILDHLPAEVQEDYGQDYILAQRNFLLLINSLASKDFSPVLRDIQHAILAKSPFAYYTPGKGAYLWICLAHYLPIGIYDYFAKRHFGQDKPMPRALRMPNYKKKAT
Put plainly: Inhibition of human recombinant 17-beta-HSD2 expressed in human HeLa cells using estradiol as substrate preincubated for 30 mins prior substrate addition measured after 120 mins by spectrophotometry. The class given is cell-based.

The target in data set [5] is T4, 17-beta-hydroxysteroid dehydrogenase type 1 (Homo sapiens) (UniProt P14061).
T4 sequence (whole entry): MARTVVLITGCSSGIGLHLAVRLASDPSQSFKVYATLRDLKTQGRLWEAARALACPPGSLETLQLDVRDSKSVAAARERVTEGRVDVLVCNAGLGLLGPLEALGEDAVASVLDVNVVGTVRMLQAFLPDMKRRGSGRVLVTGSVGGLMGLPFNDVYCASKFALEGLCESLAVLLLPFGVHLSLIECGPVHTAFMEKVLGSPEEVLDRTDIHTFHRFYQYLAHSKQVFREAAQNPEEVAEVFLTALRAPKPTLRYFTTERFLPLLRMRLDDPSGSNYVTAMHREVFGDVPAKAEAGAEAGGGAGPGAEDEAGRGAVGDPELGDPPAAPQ
Put plainly: Inhibition of human recombinant 17-beta-HSD1 expressed in human HeLa cells using estrone as substrate preincubated for 30 mins prior substrate addition measured after 120 mins by spectrophotometry. The class given is cell-based.

The target of data set [6] is T5, Glucocorticoid receptor (Homo sapiens) (UniProt P04150).
T5 sequence (whole entry): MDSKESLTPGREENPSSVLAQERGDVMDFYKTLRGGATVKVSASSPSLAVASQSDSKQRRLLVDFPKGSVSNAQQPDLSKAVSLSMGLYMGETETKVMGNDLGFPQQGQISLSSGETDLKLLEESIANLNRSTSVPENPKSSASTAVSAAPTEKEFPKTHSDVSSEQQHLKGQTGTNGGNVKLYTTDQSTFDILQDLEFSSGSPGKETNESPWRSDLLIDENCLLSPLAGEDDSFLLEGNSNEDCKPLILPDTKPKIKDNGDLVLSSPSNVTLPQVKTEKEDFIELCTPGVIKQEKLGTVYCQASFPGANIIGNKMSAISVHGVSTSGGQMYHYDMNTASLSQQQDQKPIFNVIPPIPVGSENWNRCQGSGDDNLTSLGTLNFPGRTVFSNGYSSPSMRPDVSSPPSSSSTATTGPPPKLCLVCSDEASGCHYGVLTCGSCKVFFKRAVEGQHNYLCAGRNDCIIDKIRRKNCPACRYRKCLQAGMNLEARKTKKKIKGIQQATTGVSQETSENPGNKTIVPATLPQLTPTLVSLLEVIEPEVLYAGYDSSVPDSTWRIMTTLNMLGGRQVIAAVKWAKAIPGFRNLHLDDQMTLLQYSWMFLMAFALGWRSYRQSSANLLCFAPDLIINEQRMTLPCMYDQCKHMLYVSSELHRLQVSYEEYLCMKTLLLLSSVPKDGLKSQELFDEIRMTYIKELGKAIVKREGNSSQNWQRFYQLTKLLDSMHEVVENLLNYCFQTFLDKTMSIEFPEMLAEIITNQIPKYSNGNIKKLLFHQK
Put plainly: Agonist activity at human Glucocorticoid receptor expressed in human HeLa cells assessed as DHT-induced response after 40 hrs by luciferase/beta-galactosidase-based reporter gene assay. It is filed as functional, cell-based.

Data set [7] concerns the target T1, Estrogen receptor (Homo sapiens). Put plainly: Antagonist activity at human ERalpha receptor expressed in human HeLa cells assessed as inhibition of DHT-induced response after 40 hrs by luciferase/beta-galactosidase-based reporter gene assay. The class given is functional, cell-based.
Data set [8] deals with T5, Glucocorticoid receptor (Homo sapiens). As to the kind of experiment: Antagonist activity at human GR receptor expressed in human HeLa cells assessed as inhibition of DHT-induced response after 40 hrs by luciferase/beta-galactosidase-based reporter gene assay. The class given is functional, cell-based.
For data set [9], the target named is T2, Androgen receptor (Homo sapiens). Put plainly: Agonist activity at human androgen receptor expressed in human HeLa cells assessed as DHT-induced response after 40 hrs by luciferase/beta-galactosidase-based reporter gene assay. The class given is functional, cell-based.
Data set [10] concerns the target T6, 17-beta-hydroxysteroid dehydrogenase type 3 (Homo sapiens, UniProt P37058).
T6 sequence (P37058 whole entry): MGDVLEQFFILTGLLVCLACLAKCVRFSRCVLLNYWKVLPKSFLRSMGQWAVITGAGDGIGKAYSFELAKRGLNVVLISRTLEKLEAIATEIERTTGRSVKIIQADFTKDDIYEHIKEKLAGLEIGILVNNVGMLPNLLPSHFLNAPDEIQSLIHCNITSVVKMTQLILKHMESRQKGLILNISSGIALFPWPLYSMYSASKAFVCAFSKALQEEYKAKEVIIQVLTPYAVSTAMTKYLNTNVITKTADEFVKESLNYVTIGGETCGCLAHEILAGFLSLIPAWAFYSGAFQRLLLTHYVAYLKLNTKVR
The conditions noted are these: hela.
Description: Inhibition of human recombinant 17-beta-HSD3 expressed in human HeLa cells using androstenedione as substrate preincubated for 30 mins prior substrate addition measured after 120 mins by spectrophotometry

Active and inactive are the calls of the source. A value given as a limit tells only on which side of the number the result lay.

Consider `CC(=O)O[C@H]1CC[C@@]2(C)C(=CC[C@@H]3[C@@H]2CC[C@]2(C)C(c4cccnc4)=CC[C@@H]32)C1`, for which the inhibition result in the data set on Rattus norvegicus is “Active”.
As to `COc1ccc(N2C(=O)/C(=C/c3ccc(O)c(Br)c3)OC2=S)cc1`, the result in data set [1], in [2], in [6], in data set [7], in data set [8] and in data set [9] was inactive. In data set [3], this compound had a solubility of less than 1 µg/mL. Further, the inhibition result in data set [4] and in data set [5] was “inactive” in each case.
In the case of `O=C1NC(=S)S/C1=C\c1ccc(O)c(Br)c1`, the result in data set [1], in data set [2], in [6], in data set [7], in data set [8] and in data set [9] was inactive. Besides, the inhibition entry in data set [4] and in data set [5] was “inactive” in each case. Besides, the IC50 result in [10] is listed as “Not Active”.
Turning to `COc1ccc(N2C(=O)O/C(=C\c3ccc(O)c(CN(C)C)c3)C2=O)cc1`, the outcome in data set [1], in [2], in data set [6], in [7], in data set [8] and in data set [9] was inactive. Moreover, the inhibition entry in data set [4] and in [5] was “inactive” in each case. Besides, the IC50 entry in data set [10] is recorded as “Not Active”.
As for `COc1ccc(N2C(=O)/C(=C(/c3ccc(O)c(Br)c3)C(F)(F)F)SC2=S)cc1`, the outcome in [1], in data set [2], in data set [6], in data set [7], in data set [8] and in data set [9] was inactive. For the same compound, the inhibition result in data set [4] and in data set [5] was “inactive” throughout. In [10], the IC50 result is recorded as “Not Active”.
In the case of `COc1ccc(N2C(=O)O/C(=C\c3ccc(O)c(C#N)c3)C2=O)cc1`, the result in [1], in [2], in data set [6], in data set [7], in data set [8] and in data set [9] was inactive. In addition, the inhibition result in data set [4] and in data set [5] was “inactive” in each case. The IC50 result in data set [10] is recorded as “Not Active”.
In the case of `O=C(O)c1ccc(N2C(=O)O/C(=C\c3ccc(O)c(Br)c3)C2=O)cc1`, the outcome in [1], in data set [2], in data set [6], in [7], in data set [8] and in data set [9] was inactive. Also, the inhibition entry in data set [4] and in data set [5] was “inactive” in each case. Besides, the IC50 result in [10] was “Not Active”.

The values are drawn from ChEMBL document CHEMBL2016457, “Discovery of potent and orally bioavailable 17β-hydroxysteroid dehydrogenase type 3 inhibitors” (Bioorg Med Chem, 2012).
